Assay [1] has as its system aldose reductase. To be noted: literature report; cited from earlier work.
In assay [2] the target is T1, aldose reductase (Bos taurus, UniProt P16116).
T1 construct: preparation of the enzyme from bovine lens; from tissue; host or cells: bovine lens
As to the kind of experiment: in vitro aldose reductase inhibition (modified Hayman and Kinoshita procedure, enzyme from bovine lens). The class given is biochemical. To be noted: read-out: % Inhibition at Different Molar Concentrations (in vitro); for inhibition at 10 µM: 10^-5 molar; for inhibition at 1 µM: 10^-6 molar; for inhibition at 0.1 µM: 10^-7 molar. On the procedure: In the present case the procedure of Hayman and Kinoshita is modified in that the final chromatography step is omitted in the preparation of the enzyme from bovine lens.
The following results were obtained when the compounds of this invention were evaluated in the above in vitro test.

On to `O=C(O)CN1C(=O)c2cccc3cccc(c23)C1=O` [1,3-Dioxo-1H-benz[de]isoquinoline-2(3H)-acetic acid], for which the “inhibition of aldose reductase (in words)” value in the assay on aldose reductase [1] is on record as “effective inhibitor of aldose reductase”.

As for `CN(CC(=O)O)C(=S)c1ccc2c(Br)cccc2c1` [CH3 5-Br, N-[(5-bromo-2-naphthalenyl)thioxomethyl]-N-methylglycine], at aldose reductase [2], the inhibition at 10 µM was found to be 87%, the inhibition at 1 µM amounted to 70% and the inhibition at 0.1 µM came out at 21%.

Consider `CN(CC(=O)O)C(=S)c1ccc2cc(Br)ccc2c1` [CH3 6-Br, N-[(6-Bromo-2-naphthalenyl)thioxomethyl]-N-methylglycine], for which, at aldose reductase [2], the inhibition at 10 µM is 84%, the inhibition at 1 µM is 60% and the inhibition at 0.1 µM came out at 19%.

Take `O=C1NC(=O)[C@@]2(CCOc3ccc(F)cc32)N1` [sorbinil, (S)-6-Fluoro-2,3-dihydrospiro(4H-1-benzopyran-4,4'-imidazolidine)-2',5'-dione]: the “inhibition of aldose reductase (in words)” value with aldose reductase [1] was “aldose reductase inhibiting properties”.

The values above are taken from patent publication US4447452A, “N[(2-Naphthalenyl)thioxomethyl]glycine derivatives” (Ayerst, McKenna & Harrison Inc., priority 1981, dated 1984).
